Source: ChEMBL document CHEMBL1126401, “New potent enkephalin analogs containing trifluoromethylamino acid residues” (Bioorg Med Chem Lett, 1992)
*1 amine or outer side, *2 acyl side, *3 side chain or, on linkers, in order; H or OH if unused. Where a SMILES comes first, the peptide text is derived from it. [ ]: non-standard residue; d: D form. Nva(5,5,5-F3) = N[C@@H](CCC(F)(F)F)C(=O)O; X1 = O=C([C@@H](CCC(F)(F)F)N[*:1])[*:2]; X2 = O=C([C@H](CCCC(F)(F)F)N[*:1])[*:2]; NMeF = CN[C@@H](Cc1ccccc1)C(=O)O

Assays:
Mus musculus = test: In vivo analgesic activity of fluoro-enkephalin analog was determined against the compound at 10E-9 M/mouse; i.c.v.; assay type: functional
[1] = target: Kappa-type opioid receptor (Cavia porcellus, UniProt P41144); test: Compound was evaluated for its binding affinity against enkephalin kappa receptor using [3H]U-69593 as ligand in guinea pig cerebrum in vitro
Mu-type opioid receptor = Mu-type opioid receptor (Rattus norvegicus, UniProt P33535); test: Compound was evaluated for its binding affinity against enkephalin mu receptor using [3H]PL-017 as ligand in rat cerebrum in vitro
[2] = target: Delta-type opioid receptor (Rattus norvegicus, UniProt P33533); test: Compound was evaluated for its binding affinity against enkephalin delta receptor using [3H]DPDPE as ligand in rat cerebrum in vitro
Sequence of Delta-type opioid receptor (P33533 whole entry): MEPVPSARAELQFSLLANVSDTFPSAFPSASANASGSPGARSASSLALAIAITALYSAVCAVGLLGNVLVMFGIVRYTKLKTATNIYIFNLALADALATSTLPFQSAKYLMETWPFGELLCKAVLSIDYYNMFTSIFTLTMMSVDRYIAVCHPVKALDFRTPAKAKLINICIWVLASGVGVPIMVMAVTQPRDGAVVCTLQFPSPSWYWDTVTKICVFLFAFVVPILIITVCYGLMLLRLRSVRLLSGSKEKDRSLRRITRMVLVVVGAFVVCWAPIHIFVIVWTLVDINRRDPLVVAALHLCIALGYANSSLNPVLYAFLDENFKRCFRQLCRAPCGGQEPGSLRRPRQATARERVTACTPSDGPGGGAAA

Sequence of Mu-type opioid receptor (P33535 whole entry): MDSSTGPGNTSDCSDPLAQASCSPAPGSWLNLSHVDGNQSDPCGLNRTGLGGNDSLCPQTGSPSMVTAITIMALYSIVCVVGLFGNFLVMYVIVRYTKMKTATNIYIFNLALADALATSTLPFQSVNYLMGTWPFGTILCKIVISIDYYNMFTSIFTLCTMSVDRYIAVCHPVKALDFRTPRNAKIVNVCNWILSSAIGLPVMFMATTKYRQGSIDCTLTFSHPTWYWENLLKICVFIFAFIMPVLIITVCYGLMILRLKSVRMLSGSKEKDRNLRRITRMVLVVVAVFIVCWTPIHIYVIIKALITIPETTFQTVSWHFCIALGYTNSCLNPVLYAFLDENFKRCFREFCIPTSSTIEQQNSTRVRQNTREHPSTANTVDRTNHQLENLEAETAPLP
Sequence of Kappa-type opioid receptor (P41144 whole entry): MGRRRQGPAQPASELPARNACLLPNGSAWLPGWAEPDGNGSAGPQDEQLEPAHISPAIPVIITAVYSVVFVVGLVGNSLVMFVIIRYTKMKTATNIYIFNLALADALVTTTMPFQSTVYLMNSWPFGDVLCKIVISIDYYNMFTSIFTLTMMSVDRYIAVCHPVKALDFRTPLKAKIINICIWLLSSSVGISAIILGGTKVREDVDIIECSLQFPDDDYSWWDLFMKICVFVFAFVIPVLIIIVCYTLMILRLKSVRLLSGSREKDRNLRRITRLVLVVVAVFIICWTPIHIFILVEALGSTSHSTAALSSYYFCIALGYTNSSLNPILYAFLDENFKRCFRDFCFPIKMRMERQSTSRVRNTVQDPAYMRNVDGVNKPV

Compound: CSCC[C@H](NC(=O)[C@H](Cc1ccccc1)NC(=O)CNC(=O)CNC(=O)[C@@H](N)Cc1ccc(O)cc1)C(=O)O
- ED50 (Mus musculus): 7e-07 M mouse-1

Compound: CCC[C@@H](NC(=O)[C@@H](N)Cc1ccc(O)cc1)C(=O)NCC(=O)N[C@@H](Cc1ccccc1)C(=O)N[C@@H](CCSC)C(N)=O
- ED50 (Mus musculus): 4e-11 M mouse-1

Compound: CSCC[C@H](NC(=O)[C@H](Cc1ccccc1)NC(=O)[C@H](CCC(F)(F)F)NC(=O)CNC(=O)[C@@H](N)Cc1ccc(O)cc1)C(N)=O (H-YG[Nva(5,5,5-F3)]FM-NH2)
- ED50 (Mus musculus): 2.2e-08 M mouse-1

Compound: CSCC[C@H](NC(=O)[C@H](Cc1ccccc1)NC(=O)[C@H](CCC(F)(F)F)NC(=O)CNC(=O)[C@@H](N)Cc1ccc(O)cc1)C(=O)O (H-YG[Nva(5,5,5-F3)]FM-OH)
- ED50 (Mus musculus): 1.4e-07 M mouse-1

Compound: CSCC[C@H](NC(=O)[C@H](Cc1ccccc1)NC(=O)[C@@H](CCC(F)(F)F)NC(=O)CNC(=O)[C@@H](N)Cc1ccc(O)cc1)C(N)=O (H-YG[X1]FM-NH2)
- ED50 (Mus musculus): 1.2e-08 M mouse-1

Compound: CSCC[C@H](NC(=O)[C@H](Cc1ccccc1)NC(=O)CNC(=O)[C@H](CCC(F)(F)F)NC(=O)[C@@H](N)Cc1ccc(O)cc1)C(N)=O (H-Y[Nva(5,5,5-F3)]GFM-NH2)
- IC50 [1]: 400 nM
- ED50 (Mus musculus): 7e-12 M mouse-1
- IC50 (Mu-type opioid receptor): 0.5 nM
- IC50 [2]: 2 nM

Compound: CSCC[C@H](NC(=O)[C@H](Cc1ccccc1)N(C)C(=O)CNC(=O)[C@H](CCC(F)(F)F)NC(=O)[C@@H](N)Cc1ccc(O)cc1)C(N)=O (H-Y[Nva(5,5,5-F3)]G[NMeF]M-NH2)
- ED50 (Mus musculus): 2e-12 M mouse-1

Compound: CSCC[C@H](NC(=O)[C@H](Cc1ccccc1)NC(=O)CNC(=O)[C@@H](CCC(F)(F)F)NC(=O)[C@@H](N)Cc1ccc(O)cc1)C(N)=O (H-Y[X1]GFM-NH2)
- ED50 (Mus musculus): 2.5e-08 M mouse-1

Compound: CSCC[C@H](NC(=O)[C@H](Cc1ccccc1)NC(=O)CNC(=O)[C@@H](CCC(F)(F)F)NC(=O)[C@@H](N)Cc1ccc(O)cc1)C(=O)O (H-Y[X1]GFM-OH)
- ED50 (Mus musculus): 1.2e-07 M mouse-1

Compound: CSCC[C@H](NC(=O)[C@H](Cc1ccccc1)NC(=O)CNC(=O)[C@H](CCCC(F)(F)F)NC(=O)[C@@H](N)Cc1ccc(O)cc1)C(N)=O (H-Y[X2]GFM-NH2)
- ED50 (Mus musculus): 7e-11 M mouse-1

Compound: CN1CC[C@]2(C)CC(Cc3ccc(O)cc32)C1 (single isomer, unassigned) [EPTAZOCINE]
- ED50 (Mus musculus): 5e-11 M mouse-1

Compound: CN1CC[C@]23c4c5ccc(O)c4O[C@H]2[C@@H](O)C=C[C@H]3[C@H]1C5.Cl [MORPHINE HYDROCHLORIDE]
- ED50 (Mus musculus): 7e-11 M mouse-1
